Laboratory results published in patent US7045510B2, “Methods for prevention and treatment of mastitis” (priority 2004, dated 2006).

What was measured:
[1] = tested on: milk somatic cell concentration (SCC); assay: Milk somatic cell concentration (SCC) after intramammary infusion at drying-off; assay type: in vivo, dairy cows
Procedure: (§1) Experimental Design: At dry-off all quarters of even numbered cows (n=39) were infused with antibiotics (Cefa-Dri (Fort Dodge Animal Health, Fort Dodge, Iowa 50501) containing 300 mg cephapirin […] in peanut oil) approved for use by FDA. All quarters of odd numbered cows (n=40) were infused with dextran (total dose 100 mg DEAE-dextran (Sigma Chemical Co. St. Louis, Mo.)) in 1 ml of sterile filtered distilled water and suspended in 9 ml of peanut oil (Sigma).
Mammary quarters of 4 dairy cows at drying-off were infused with either 100 mg of DEAE-dextran, peanut oil, or were uninfused. Secretions were collected at 0, 24, 48, 72, 96, and 120 hours post infusion for determination of milk somatic cell concentration.

[2] = tested on: intramammary infections (mastitis); assay: Intramammary infection status before dry-off and after calving, all 4 quarters infused at dry-off; assay type: in vivo, cows; details: for new infections (quarters infected during the dry period) / old infections (quarters remaining infected after calving): group total after calving; for infected quarters at dry-off: baseline before infusion
Procedure: as §1

[3] = Milk yield in the subsequent lactation after infusion at dry-off; assay type: in vivo, cows; details: for Mean yearly milk yield: mean per cow of the group
Procedure: as §1

With diethylaminoethyl-dextran the “milk somatic cell count” value ([1]; 0 hour, quarters of 4 dairy cows infused with 100 mg at drying-off) was 129000 mL⁻¹, the “milk somatic cell count” value ([1]; 24 hours post infusion, 100 mg per quarter at drying-off) was 19,591 ×10^3/ml and the “milk somatic cell count” value ([1]; 72 hours post infusion, 100 mg per quarter at drying-off) was 8,000 ×10^3/ml. For the same substance, the “milk somatic cell concentration (SCC) increased to” value ([1]; total dose 100 mg in 1 ml water suspended in 9 ml peanut oil (FIG. 1)) was “one million”, the “clinical symptoms (swelling, elevated body temperature, redness of udder, pain)” value ([1]; total dose 100 mg intramammary) was “no clinical symptoms” and the “new infections (quarters infected during the dry period)” value [2] was 26 new infections quarters. For the same substance, the “old infections (quarters remaining infected after calving)” value [2] was 17 old infections quarters, the “new infections (quarters infected during the dry period)” value ([2]; listed as dextran) was 26 quarters and the “old infections (quarters remaining infected after calving)” value ([2]; listed as dextran) was 17 quarters. For the same substance, the “infected quarters at dry-off” value ([2]; group total) was 38 quarters infected, the “infected quarters at dry-off” value ([2]; group total, listed as dextran) was 38 quarters and the “total infections after calving” value ([2]; group total, old plus new) was 43 infections. For the same substance, the “net gain of intramammary infections” value ([2]; total after calving compared to infected quarters at dry-off) was 5 infections, the “milk yield per cow more than cows that received antibiotics” value [3] was “approximately 700 pounds” and the “Mean yearly milk yield” value [3] was “Mean 26029 pounds”. For the same substance, the “Mean yearly milk yield” value ([3]; listed as dextran) was 26,029 pounds.
